{"source": "ChEMBL document CHEMBL1201862", "about": "“PubChem BioAssay data set” (2004)", "key": {"Cannabinoid receptor 2 [1]": {"target": "T1, Cannabinoid receptor 2 (Homo sapiens, UniProt P34972)", "T1 sequence (P34972 whole entry)": "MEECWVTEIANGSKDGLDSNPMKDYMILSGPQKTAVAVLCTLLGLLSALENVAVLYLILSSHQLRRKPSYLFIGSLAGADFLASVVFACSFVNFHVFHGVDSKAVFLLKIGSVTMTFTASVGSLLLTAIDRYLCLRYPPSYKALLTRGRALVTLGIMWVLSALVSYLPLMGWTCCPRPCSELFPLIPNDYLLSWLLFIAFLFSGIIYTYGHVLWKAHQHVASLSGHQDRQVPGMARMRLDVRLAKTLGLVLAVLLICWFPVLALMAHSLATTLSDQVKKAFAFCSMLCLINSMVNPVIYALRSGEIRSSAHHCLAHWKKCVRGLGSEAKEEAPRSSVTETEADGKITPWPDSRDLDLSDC", "experiment": "SAR analysis of antagonists of the Cannabinoid Receptor 2 using an Image-Based Assay - Set 2. [Related pubchem assays (depositor defined):AID1961, AID1965]", "assay_type": "functional"}, "[2]": {"target": "G-protein coupled receptor 55 (Homo sapiens, UniProt Q9Y2T6)", "sequence (Q9Y2T6 whole entry)": "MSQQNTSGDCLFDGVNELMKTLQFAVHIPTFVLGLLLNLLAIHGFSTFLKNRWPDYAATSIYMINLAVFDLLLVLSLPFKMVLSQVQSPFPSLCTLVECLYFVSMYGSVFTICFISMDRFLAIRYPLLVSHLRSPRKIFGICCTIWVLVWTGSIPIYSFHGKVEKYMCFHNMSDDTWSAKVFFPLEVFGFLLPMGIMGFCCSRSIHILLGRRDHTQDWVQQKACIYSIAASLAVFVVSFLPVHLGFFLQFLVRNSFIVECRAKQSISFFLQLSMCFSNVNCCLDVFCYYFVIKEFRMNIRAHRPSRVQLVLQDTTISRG", "experiment": "SAR analysis of selective Agonists of GPR55 using an Image-Based Assay - Set 2. [Related pubchem assays (depositor defined):AID1961, AID1965]", "assay_type": "functional"}, "Cannabinoid receptor 2 [3]": {"target": "T1, Cannabinoid receptor 2", "experiment": "SAR analysis of agonists of the Cannabinoid Receptor 2 using an Image-Based Assay - Set 2. [Related pubchem assays (depositor defined):AID1961, AID1965]", "assay_type": "functional"}, "[4]": {"target": "T2, G-protein coupled receptor 35 (Homo sapiens, UniProt Q9HC97)", "T2 sequence (Q9HC97 whole entry)": "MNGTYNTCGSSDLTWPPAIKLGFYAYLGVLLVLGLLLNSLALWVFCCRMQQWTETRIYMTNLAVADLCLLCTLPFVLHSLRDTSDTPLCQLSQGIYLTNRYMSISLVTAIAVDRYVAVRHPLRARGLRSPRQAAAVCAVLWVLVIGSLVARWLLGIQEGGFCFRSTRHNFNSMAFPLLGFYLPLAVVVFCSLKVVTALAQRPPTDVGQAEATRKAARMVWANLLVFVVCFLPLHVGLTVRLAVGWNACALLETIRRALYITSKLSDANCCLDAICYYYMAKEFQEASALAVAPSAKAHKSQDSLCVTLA", "experiment": "SAR analysis of Agonists of the GPR35 Receptor using an Image-Based Assay - Set 3. [Related pubchem assays (depositor defined):AID1961, AID1965]", "assay_type": "functional"}, "Cannabinoid receptor 1 [5]": {"target": "T3, Cannabinoid receptor 1 (Homo sapiens, UniProt P21554)", "T3 sequence (P21554 whole entry)": "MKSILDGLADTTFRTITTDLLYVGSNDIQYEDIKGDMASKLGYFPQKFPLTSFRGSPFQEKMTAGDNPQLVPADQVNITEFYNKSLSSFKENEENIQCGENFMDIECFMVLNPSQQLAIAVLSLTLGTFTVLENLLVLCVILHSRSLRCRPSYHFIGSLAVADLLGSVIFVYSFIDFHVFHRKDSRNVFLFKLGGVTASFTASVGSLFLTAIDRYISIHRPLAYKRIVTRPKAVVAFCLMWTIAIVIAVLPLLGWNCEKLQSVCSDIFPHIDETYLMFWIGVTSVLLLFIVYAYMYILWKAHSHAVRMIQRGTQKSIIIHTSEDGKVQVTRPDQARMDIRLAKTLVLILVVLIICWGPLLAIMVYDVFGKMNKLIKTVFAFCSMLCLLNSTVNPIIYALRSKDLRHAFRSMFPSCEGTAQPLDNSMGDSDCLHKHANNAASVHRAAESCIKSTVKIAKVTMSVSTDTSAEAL", "experiment": "SAR analysis of antagonists of the Cannabinoid Receptor 1 using an Image-Based Assay - Set 3. [Related pubchem assays (depositor defined):AID1961, AID1965]", "assay_type": "functional"}, "Cannabinoid receptor 1 [6]": {"target": "T3, Cannabinoid receptor 1", "experiment": "SAR analysis of agonists of the Cannabinoid Receptor 1 using an Image-Based Assay - Set 3. [Related pubchem assays (depositor defined):AID1961, AID1965]", "assay_type": "functional"}, "[7]": {"target": "T2, G-protein coupled receptor 35", "experiment": "SAR analysis of Antagonists of the GPR35 Receptor using an Image-Based Assay - Set 4. [Related pubchem assays (depositor defined):[…]]", "assay_type": "functional"}, "[8]": {"target": "T4, Sphingosine 1-phosphate receptor 4 (Homo sapiens, UniProt O95977)", "T4 sequence (O95977 whole entry)": "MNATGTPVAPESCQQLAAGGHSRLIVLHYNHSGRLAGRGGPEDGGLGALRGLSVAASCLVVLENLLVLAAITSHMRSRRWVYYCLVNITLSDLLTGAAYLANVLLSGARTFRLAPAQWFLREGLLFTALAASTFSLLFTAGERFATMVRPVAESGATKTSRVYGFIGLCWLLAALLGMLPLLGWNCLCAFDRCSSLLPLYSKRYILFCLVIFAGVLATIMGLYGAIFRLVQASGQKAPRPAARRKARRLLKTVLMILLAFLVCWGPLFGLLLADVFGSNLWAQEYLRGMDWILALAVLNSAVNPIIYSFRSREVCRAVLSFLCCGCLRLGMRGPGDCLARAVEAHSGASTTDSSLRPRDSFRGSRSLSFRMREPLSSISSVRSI", "experiment": "Late-stage fluorescence dose response cell-based assay to identify agonists of the Sphingosine 1-Phosphate Receptor 4 (S1P4): purchased compounds EC50. [Related pubchem assays (depositor defined):AID1509, AID1523, AID1563, AID1686, AID1701, AID1801]", "assay_type": "functional"}, "[9]": {"experiment": "Luminescence Cell-Based Dose Response HTS to Identify Inhibitors of Luciferase Translation or Activity in H4-C Neuroglioblastoma Cells. [Related pubchem assays: 1813 (Primary HTS), 1827 (Project Summary)]", "assay_type": "functional"}, "[10]": {"experiment": "luciferase reporter signal suppression in cells – H4 neuroglioma cells, luminescence, dose response (AID 1990)", "assay_type": "functional, cell-based"}, "[11]": {"experiment": "Luminescence Cell-Based Dose Retest to Confirm Activators of 5'UTR Stem-Loop Driven Alpha-Synuclein mRNA Translation in H4 Neuroglioblastoma Cells. [Related pubchem assays (depositor defined):AID1813, AID1829]", "assay_type": "functional"}, "[12]": {"experiment": "ELISA Cell-Based Dose Response to Identify Inhibitors of Alpha-Synuclein Translation in SH-SY5Y Cells. [Related pubchem assays: 1813 (Primary HTS), 1827 (Project Summary)]", "assay_type": "functional"}, "[13]": {"experiment": "Luminescence Cell-Based Dose HTS Response to Identify Inhibitors of 5'UTR Stem-Loop Driven Prion Protein mRNA Translation in H4-C Neuroglioblastoma Cells. [Related pubchem assays (depositor defined):AID1814, AID1827]", "assay_type": "functional"}, "[14]": {"experiment": "Western Blot Cell-Based Dose Response to Identify Inhibitors of […] Alpha-Synuclein Translation in H4 Cells. [Related pubchem assays: 1827 (Project Summary), 1813 (Primary HTS)]"}, "[15]": {"experiment": "Luminescence Cell-Based Dose Response HTS to Identify Inhibitors of 5'UTR Stem-Loop Driven Prion Protein mRNA Translation in H4 Neuroglioblastoma Cells. [Related pubchem assays: 1827 (Project Summary), 1813 (Primary HTS)]", "assay_type": "functional"}, "[16]": {"experiment": "alpha-synuclein stem-loop luciferase translation blockers – H4 neuroglioma cells, luminescence, confirmation (AID 1988)", "assay_type": "functional, cell-based"}, "[17]": {"experiment": "Luminescence Cell-Based Dose Confirmation HTS to Identify Inhibitors of 5'UTR Stem-Loop Driven Alpha-Synuclein mRNA Translation in H4 Neuroglioblastoma Cells. [Related pubchem assays: 1827 (Project Summary), 1813 (Primary HTS)]", "assay_type": "functional"}, "[18]": {"target": "T5, Heat shock factor protein 1 (Mus musculus, UniProt P38532)", "T5 sequence (P38532 whole entry)": "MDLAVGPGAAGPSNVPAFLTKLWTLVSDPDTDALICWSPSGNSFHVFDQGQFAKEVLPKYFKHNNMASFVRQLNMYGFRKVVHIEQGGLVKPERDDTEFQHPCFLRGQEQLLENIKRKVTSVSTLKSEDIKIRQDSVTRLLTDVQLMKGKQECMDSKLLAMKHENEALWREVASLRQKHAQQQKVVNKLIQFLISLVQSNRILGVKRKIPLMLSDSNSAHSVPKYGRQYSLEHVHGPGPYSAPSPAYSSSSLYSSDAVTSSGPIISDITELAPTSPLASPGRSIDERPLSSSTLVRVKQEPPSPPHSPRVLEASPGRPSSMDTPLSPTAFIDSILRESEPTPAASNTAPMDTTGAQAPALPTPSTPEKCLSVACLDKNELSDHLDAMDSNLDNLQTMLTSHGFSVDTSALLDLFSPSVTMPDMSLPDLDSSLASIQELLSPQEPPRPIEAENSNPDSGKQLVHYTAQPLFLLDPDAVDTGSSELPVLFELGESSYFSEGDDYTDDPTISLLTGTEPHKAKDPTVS", "experiment": "enhancement of HSF1-driven luciferase signal – cell-based, NIH3T3, luminescence, dose retest, confirmation (AID 435004);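 note: stress induced by proteasome inhibitor MG132 added 30 min after compound; actives raise luminescence as potentiators of the MG132 stress response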", "assay_type": "functional"}}, "note": "Activity calls are given as the source filed them."}
{"smiles": "Cc1ccc(-c2csc(NC(=O)CSc3nnc4cc(C)c5ccccc5n34)n2)cc1", "values": [{"measurement": "IC50", "setting": "Cannabinoid receptor 2 [1]", "value": "> 32 µM (inactive)"}, {"measurement": "EC50", "setting": "[2]", "value": "11.5 µM (inactive)"}, {"measurement": "EC50", "setting": "Cannabinoid receptor 2 [3]", "value": "> 32 µM (inactive)"}, {"measurement": "EC50", "setting": "[4]", "value": "> 32 µM (inactive)"}, {"measurement": "IC50", "setting": "Cannabinoid receptor 1 [5]", "value": "> 32 µM (inactive)"}, {"measurement": "EC50", "setting": "Cannabinoid receptor 1 [6]", "value": "> 32 µM (inactive)"}, {"measurement": "IC50", "setting": "[7]", "value": "> 32 µM (inactive)"}]}
{"smiles": "Cc1ccc(OCC(=O)Nc2cccc(Cl)c2)c([N+](=O)[O-])n1", "values": [{"measurement": "EC50", "setting": "[8]", "value": "> 50 µM (inactive)"}]}
{"smiles": "CN(C)c1nc(N)nc(CSc2nnnn2-c2cccc3ccccc23)n1", "values": [{"measurement": "EC50", "setting": "[9]", "value": "> 195 µM (not active)"}, {"measurement": "EC50", "setting": "[10]", "value": "> 120 µM (not active)"}, {"measurement": "EC50", "setting": "[11]", "value": "1.81 µM (inconclusive)"}, {"measurement": "EC50", "setting": "[12]", "value": "< 0.006 µM (active)"}, {"measurement": "EC50", "setting": "[13]", "value": "> 195 µM (inactive)"}, {"measurement": "EC50", "setting": "[14]", "value": "< 1 µM (active)"}, {"measurement": "EC50", "setting": "[15]", "value": "> 120 µM (not active)"}, {"measurement": "EC50", "setting": "[16]", "value": "3.5 µM (active)"}, {"measurement": "EC50", "setting": "[17]", "value": "1.81 µM (active)"}, {"measurement": "EC50", "setting": "[18]", "value": "> 260 µM (inactive)"}]}
